Source: PubChem BioAssay AID252 (DTP/NCI, 2004)
Values joined by “and” are separate entries in the source; they are usually repeats but may differ in a detail not shown here. Identical values can stand only once. Inconclusive results and toxic doses are left out.

Test system: BDF1 mice, intracerebral L1210 leukemia, survival T/C
Test: NCI In Vivo Anticancer Drug Screen. Data for tumor model L1210 Leukemia (intracerebral) in B6D2F1 (BDF1) mice
Details: higher = longer survival
How it was run: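 Tumour was transplanted, animals received compound or vehicle, then survival in each group was measured and treated divided by control.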

[1] = endpoint: mean survival time, dose: 37.0 mg/kg/injection, schedule: Q01DX001 (ip), vehicle: carboxymethylcellulose (CMC)
[2] = endpoint: mean survival time, dose: 750.0 mg/kg/injection, schedule: Q01DX Z (ip), vehicle: saline

With `O=NN(CCCl)C(=O)Nc1ccc(C(F)(F)F)cc1` as the compound, how does the T/C [1] read?
Its T/C is 110 % of control.

What about the T/C (endpoint: mean survival time, dose: 50.0 mg/kg/injection, schedule: Q01DX001 (ip), vehicle: carboxymethylcellulose (CMC)) of the same compound?
Its T/C is 110 % of control.

What about the T/C (endpoint: mean survival time, dose: 75.0 mg/kg/injection, schedule: Q01DX001 (ip), vehicle: carboxymethylcellulose (CMC)) of the same compound?
Its T/C is 118 % of control.

What about the T/C (endpoint: mean survival time, dose: 112.0 mg/kg/injection, schedule: Q01DX001 (ip), vehicle: carboxymethylcellulose (CMC)) of the same compound?
Its T/C is 92 % of control.

Which results are given for `Nc1n[nH]c(N)n1`?
T/C (endpoint: mean survival time, dose: 100.0 mg/kg/injection, schedule: Q03HX024 (ip), vehicle: saline): 104 % of control and 97 % of control and 100 % of control; T/C (endpoint: mean survival time, dose: 150.0 mg/kg/injection, schedule: Q03HX024 (ip), vehicle: saline): 102 % of control and 104 % of control and 99 % of control; T/C (endpoint: mean survival time, dose: 225.0 mg/kg/injection, schedule: Q01DX Z (ip), vehicle: saline): 104 % of control; T/C (endpoint: mean survival time, dose: 225.0 mg/kg/injection, schedule: Q03HX024 (ip), vehicle: saline): 102 % of control and 108 % of control and 110 % of control; T/C (endpoint: mean survival time, dose: 335.0 mg/kg/injection, schedule: Q03HX024 (ip), vehicle: saline): 109 % of control and 119 % of control and 121 % of control; T/C (endpoint: mean survival time, dose: 375.0 mg/kg/injection, schedule: Q01DX Z (ip), vehicle: saline): 108 % of control; T/C (endpoint: mean survival time, dose: 500.0 mg/kg/injection, schedule: Q03HX024 (ip), vehicle: saline): 109 % of control and 122 % of control; T/C [2]: 98 % of control

Which results are given for `CC1CCC(NC(=O)N(CCF)N=O)CC1` (centres undefined)?
T/C (endpoint: mean survival time, dose: 20.0 mg/kg/injection, schedule: Q01DX001 (ip), vehicle: other): 117 % of control; T/C (endpoint: mean survival time, dose: 44.0 mg/kg/injection, schedule: Q01DX001 (ip), vehicle: other): 212 % of control; T/C (endpoint: mean survival time, dose: 66.0 mg/kg/injection, schedule: Q01DX001 (ip), vehicle: other): 341 % of control

How did the T/C (endpoint: mean survival time, dose: 74.0 mg/kg/injection, schedule: Q01DX001 (ip), vehicle: other) turn out when `CCOC(=O)C1(NC(=O)N(CCCl)N=O)CCCC1` was run?
The T/C was 116 % of control.

What about the T/C (endpoint: mean survival time, dose: 108.0 mg/kg/injection, schedule: Q01DX001 (ip), vehicle: other) of the same compound?
Its T/C is 119 % of control.

And the T/C (endpoint: mean survival time, dose: 110.0 mg/kg/injection, schedule: Q01DX001 (ip), vehicle: other)?
Its T/C is 118 % of control.

What about the T/C (endpoint: mean survival time, dose: 168.0 mg/kg/injection, schedule: Q01DX001 (ip), vehicle: other) of the same compound?
The T/C was 152 % of control.

And the T/C (endpoint: mean survival time, dose: 250.0 mg/kg/injection, schedule: Q01DX001 (ip), vehicle: other)?
Its T/C is 174 % of control and 275 % of control.

What about the T/C (endpoint: mean survival time, dose: 370.0 mg/kg/injection, schedule: Q01DX001 (ip), vehicle: other) of the same compound?
Its T/C is 152 % of control.

What about the T/C (endpoint: mean survival time, dose: 375.0 mg/kg/injection, schedule: Q01DX001 (ip), vehicle: other) of the same compound?
The T/C was 124 % of control.

`O=c1cnn(C2OC(CO)C(O)C2O)c(=O)[nH]1` (centres undefined) was tested. Which T/C [2] did it give?
Its T/C is 158 % of control.

Which results are given for `O=NN(CCCl)C(=O)NC1CCS(=O)(=O)CC1`?
T/C (endpoint: mean survival time, dose: 7.5 mg/kg/injection, schedule: Q01DX001 (ip), vehicle: carboxymethylcellulose (CMC)): 212 % of control; T/C (endpoint: mean survival time, dose: 8.0 mg/kg/injection, schedule: Q01DX001 (ip), vehicle: carboxymethylcellulose (CMC)): 171 % of control and 172 % of control; T/C (endpoint: mean survival time, dose: 11.4 mg/kg/injection, schedule: Q01DX001 (ip), vehicle: carboxymethylcellulose (CMC)): 289 % of control; T/C (endpoint: mean survival time, dose: 12.0 mg/kg/injection, schedule: Q01DX001 (ip), vehicle: carboxymethylcellulose (CMC)): 197 % of control and 281 % of control; T/C (endpoint: mean survival time, dose: 17.0 mg/kg/injection, schedule: Q01DX001 (ip), vehicle: carboxymethylcellulose (CMC)): 298 % of control; T/C (endpoint: mean survival time, dose: 18.0 mg/kg/injection, schedule: Q01DX001 (ip), vehicle: carboxymethylcellulose (CMC)): 151 % of control and 251 % of control; T/C (endpoint: mean survival time, dose: 25.0 mg/kg/injection, schedule: Q01DX001 (ip), vehicle: carboxymethylcellulose (CMC)): 151 % of control; T/C (endpoint: mean survival time, dose: 27.0 mg/kg/injection, schedule: Q01DX001 (ip), vehicle: carboxymethylcellulose (CMC)): 88 % of control; T/C [1]: 90 % of control

Which results are given for `COc1ccc(NC(=O)N(C)N=O)cc1`?
T/C (endpoint: mean survival time, dose: 67.0 mg/kg/injection, schedule: Q01DX001 (ip), vehicle: carboxymethylcellulose (CMC)): 94 % of control; T/C (endpoint: mean survival time, dose: 100.0 mg/kg/injection, schedule: Q01DX001 (ip), vehicle: carboxymethylcellulose (CMC)): 90 % of control

How did the T/C (endpoint: mean survival time, dose: 100.0 mg/kg/injection, schedule: Q04DX003 (ip), vehicle: saline) turn out when `NCCc1ccc(O)c(O)c1` was run?
The T/C was 102 % of control.

And the T/C (endpoint: mean survival time, dose: 200.0 mg/kg/injection, schedule: Q04DX003 (ip), vehicle: saline)?
Its T/C is 95 % of control.

And the T/C (endpoint: mean survival time, dose: 400.0 mg/kg/injection, schedule: Q04DX003 (ip), vehicle: saline)?
The T/C was 98 % of control.

What about the T/C (endpoint: mean survival time, dose: 800.0 mg/kg/injection, schedule: Q04DX003 (ip), vehicle: saline) of the same compound?
The T/C was 97 % of control.

How did the T/C (endpoint: mean survival time, dose: 26.0 mg/kg/injection, schedule: Q01DX001 (ip), vehicle: carboxymethylcellulose (CMC)) turn out when `O=NN(CCCl)C(=O)NC12CC3CC(CC(C3)C1)C2` was run?
Its T/C is 108 % of control.

What about the T/C (endpoint: mean survival time, dose: 40.0 mg/kg/injection, schedule: Q01DX001 (ip), vehicle: carboxymethylcellulose (CMC)) of the same compound?
The T/C was 112 % of control.

What about the T/C (endpoint: mean survival time, dose: 90.0 mg/kg/injection, schedule: Q01DX001 (ip), vehicle: carboxymethylcellulose (CMC)) of the same compound?
The T/C was 120 % of control.

Which results are given for `C[n+]1ccc(Nc2ccc(NC(=O)c3ccc(Nc4cc[n+](C)c5ccc(N)cc45)cc3N)cc2)cc1`?
T/C (endpoint: mean survival time, dose: 1.0 mg/kg/injection, schedule: Q01DX009 (ip), vehicle: water): 93 % of control; T/C (endpoint: mean survival time, dose: 2.0 mg/kg/injection, schedule: Q01DX009 (ip), vehicle: water): 97 % of control; T/C (endpoint: mean survival time, dose: 4.0 mg/kg/injection, schedule: Q01DX009 (ip), vehicle: water): 104 % of control; T/C (endpoint: mean survival time, dose: 8.0 mg/kg/injection, schedule: Q01DX009 (ip), vehicle: water): 112 % of control

`C[C@@H]1C[C@@H]([C@H](O)CC2CC(=O)NC(=O)C2)C(=O)[C@@H](C)C1` was tested. Which T/C (endpoint: mean survival time, dose: 16.0 mg/kg/injection, schedule: Q01DX015 (ip), vehicle: saline) did it give?
Its T/C is 121 % of control.

What about the T/C (endpoint: mean survival time, dose: 24.0 mg/kg/injection, schedule: Q01DX015 (ip), vehicle: saline) of the same compound?
The T/C was 120 % of control.

And the T/C (endpoint: mean survival time, dose: 36.0 mg/kg/injection, schedule: Q01DX015 (ip), vehicle: saline)?
The T/C was 116 % of control.

What about the T/C (endpoint: mean survival time, dose: 44.0 mg/kg/injection, schedule: Q01DX001 (ip), vehicle: saline) of the same compound?
Its T/C is 98 % of control.

And the T/C (endpoint: mean survival time, dose: 67.0 mg/kg/injection, schedule: Q01DX001 (ip), vehicle: saline)?
The T/C was 104 % of control.

And the T/C (endpoint: mean survival time, dose: 100.0 mg/kg/injection, schedule: Q01DX001 (ip), vehicle: saline)?
The T/C was 103 % of control.

Which T/C (endpoint: median survival time, dose: 12.5 mg/kg/injection, schedule: Q01DX009 (ip), vehicle: distilled water + Tween-80 + alcohol) does the source give for `CCCCCCCCCCCCCCCC(=O)Nc1ccn(C2OC(CO)C(O)C2O)c(=O)n1` (centres undefined) here?
Its T/C is 214 % of control.

What about the T/C (endpoint: median survival time, dose: 25.0 mg/kg/injection, schedule: Q01DX009 (ip), vehicle: distilled water + Tween-80 + alcohol) of the same compound?
Its T/C is 269 % of control.

What does the source list for `CCS(=O)(=O)Nc1cccc(Nc2c3cccc(C)c3nc3c(C)cccc23)c1OC`?
T/C (endpoint: mean survival time, dose: 12.5 mg/kg/injection, schedule: Q01DX009 (ip), vehicle: water): 117 % of control; T/C (endpoint: mean survival time, dose: 12.5 mg/kg/injection, schedule: Q01DX009 (sc), vehicle: water): 105 % of control; T/C (endpoint: mean survival time, dose: 25.0 mg/kg/injection, schedule: Q01DX009 (ip), vehicle: water): 92 % of control; T/C (endpoint: mean survival time, dose: 25.0 mg/kg/injection, schedule: Q01DX009 (sc), vehicle: water): 118 % of control; T/C (endpoint: mean survival time, dose: 50.0 mg/kg/injection, schedule: Q01DX009 (sc), vehicle: water): 113 % of control; T/C (endpoint: mean survival time, dose: 100.0 mg/kg/injection, schedule: Q01DX009 (sc), vehicle: water): 104 % of control
